Reference: US11970473B2, “Nootkatone derivatives and methods of using the same” (Arkansas State University—Jonesboro, priority 2021, dated 2024)
Converted amounts (≈) assume the structure as drawn.

Legend:
[1] = test system: treated bacteria (differentially expressed proteins); assay: Quantitative proteomics: protein regulation by Compound 16 versus DMSO control
[2] = test system: S. aureus ATCC 700699 and S. aureus ATCC 33591; assay: Time-Kill Assay; type: cell-based; settings: 4×MIC
Protocol: Time kill assay for test antibiotics against S. aureus ATCC 700699 and S. aureus ATCC 33591 strains was conducted using procedures published previously.^26 Briefly, a log-phase bacterial culture was diluted to ˜5×10^6 CFU/ml in warm sterile CAMHB broth and was exposed to antibiotics at 4×MIC concentration then incubated at 35° C. Samples of 20 μl were taken every 2 hours, diluted 10 fold to 10^−5, and the 6×6 drop plate method was performed to determine viable CFU/ml after 18-24 hours of incubation at 35° C. Each antibiotic time-kill assay was conducted in triplicate.

S. aureus strains = assay: MIC, summary over S. aureus strains; type: cell-based; settings: Staphylococcus aureus; lowest MIC over S. aureus strains; read-out: minimum inhibitory concentration (MIC) value as low as
Protocol: (§1) Minimal inhibitory concentration (MIC) assay The standard microdilution method recommended by the Clinical and Laboratory Standards Institute (CLSI) was used to determine the MIC of the antibiotics. The starting concentration of compounds was 50 μg/ml and 2-fold dilution was done down the 96 honeycomb well plate column. The MIC assay was conducted in triplicates.

MRSA persisters = assay: Persister Cell Killing Assay
Protocol: A persister cell killing assay was performed following the methodology described by Kim et. al. with some modifications.^28 S. aureus strain was grown to stationary phase in CAMHB medium by shaking at 200 rpm overnight at 35° C. An aliquot of stationary phase culture (1 ml) was washed thrice with 1×PBS by centrifugation. After washing, the cells were diluted to ˜5×10^8 CFU/ml (confirmed by plate count). Diluted persister cells (2 ml) plus antibiotics at the desired concentration were incubated in sterile 10×75 mm plastic culture tubes at 35° C. with shaking at 200 rpm. At specific times, 400 μl aliquots were placed into microcentrifuge tubes and the cells washed and serially diluted in PBS. The diluted sample was plated on TSA agar plate with 5% sheep blood by the 6×6 drop plate method. Plates were incubated for 18-20 hours at 35° C., and then colonies were counted to calculate concentrations in CFU/ml. The experiment was performed in triplicates.

[3] = test system: B. subtilis ATCC 6623 (Bs); assay: Minimal inhibitory concentration (MIC) assay; type: cell-based; settings: Bacillus subtilis, ATCC6623; B. subtilis ATCC 6623; read-out: Antimicrobial activity (MIC) Bs
Protocol: as §1

[4] = test system: S. aureus ATCC 700699 (Sa99); assay: Minimal inhibitory concentration (MIC) assay; type: cell-based; settings: Staphylococcus aureus, ATCC700699; S. aureus ATCC 700699, antibiotic-resistant strain; read-out: Antimicrobial activity (MIC) Sa99
Protocol: as §1

[5] = test system: S. aureus BAA-2312 (Sa12); assay: Minimal inhibitory concentration (MIC) assay; type: cell-based; settings: Staphylococcus aureus, BAA2312; S. aureus BAA-2312, antibiotic-resistant strain; read-out: Antimicrobial activity (MIC) Sa12
Protocol: as §1

[6] = test system: S. aureus ATCC 33592 (Sa92); assay: Minimal inhibitory concentration (MIC) assay; type: cell-based; settings: Staphylococcus aureus, ATCC33592; S. aureus ATCC 33592, antibiotic-resistant strain; read-out: Antimicrobial activity (MIC) Sa92
Protocol: as §1

[7] = test system: S. aureus ATCC 33591 (Sa91); assay: Minimal inhibitory concentration (MIC) assay; type: cell-based; settings: Staphylococcus aureus, ATCC33591; S. aureus ATCC 33591, antibiotic-resistant strain; read-out: Antimicrobial activity (MIC) Sa91
Protocol: as §1

[8] = test system: Enterococcus faecium ATCC 700221 (Em21); assay: Minimal inhibitory concentration (MIC) assay; type: cell-based; settings: Enterococcus faecium, ATCC700221, Enterococcus faecium ATCC 700221; read-out: Antimicrobial activity (MIC) Em21
Protocol: as §1

[9] = test system: S. aureus ATCC 25923 (Sa23); assay: Minimal inhibitory concentration (MIC) assay; type: cell-based; settings: Staphylococcus aureus, ATCC25923; S. aureus ATCC 25923, antibiotic susceptible strain; read-out: Antimicrobial activity (MIC) Sa23
Protocol: as §1

[10] = test system: Enterococcus faecalis ATCC 29212 (Es12); assay: Minimal inhibitory concentration (MIC) assay; type: cell-based; settings: ATCC29212; Enterococcus faecalis ATCC 29212; read-out: Antimicrobial activity (MIC) Es12
Protocol: as §1

Compound: C=C(C)[C@@H]1CC=C2c3sc(-c4ccc(O)c(O)c4)nc3C[C@@H](C)[C@]2(C)C1 [Compound 16]
- Log(FC) ([1]; gene SAV0307 (A0A0H3JQ49): Similar to outer membrane protein, ⅛ MIC): 1.313
- Log(FC) ([1]; gene SAV0486: Initiation-control protein YabA, ⅛ MIC): −1.076
- Log(FC) ([1]; gene SAV0831: Similar to thioredoxin, ⅛ MIC): −1.298
- Log(FC) ([1]; gene SAV1155 (A0A0H3JUX1): Fibrinogen-binding protein, ⅛ MIC): 4.341
- Log(FC) ([1]; gene SAV1291: Thiamine_BP domain-containing protein, ⅛ MIC): −1.399
- Log(FC) ([1]; gene SAV1556: ABC transporter MreA, ⅛ MIC): −1.267
- Log(FC) ([1]; gene SAV1615: UPF0473 protein SAV1615, ⅛ MIC): −1.3145
- Log(FC) ([1]; gene SAV1617: UPF0297 protein SAV1617, ⅛ MIC): −2.321
- Log(FC) ([1]; gene SAV1876: Uncharacterized protein, ⅛ MIC): −3.169
- Log(FC) ([1]; gene SAV1880: UPF0435 protein SAV1880, ⅛ MIC): −1.529
- Log(FC) ([1]; gene SAV2592: 3-dmu-9_3-mt domain-containing protein, ⅛ MIC): −1.105
- Log(FC) ([1]; gene acpP: Acyl carrier protein, ⅛ MIC): −1.463
- Log(FC) ([1]; gene coa (A0A0H3JPA2): Staphylocoagulase, ⅛ MIC): 4.524
- Log(FC) ([1]; gene esxA: Type VII secretion system extracellular protein A, ⅛ MIC): −1.698
- Log(FC) ([1]; gene ftnA: Bacterial non-heme ferritin, ⅛ MIC): −1.122
- Log(FC) ([1]; gene gate: Aspartyl/glutamyl-tRNA (Asn/Gln) amidotransferase subunit C, ⅛ MIC): −2.722
- Log(FC) ([1]; gene hit: Hit-like protein involved in cell-cycle regulation, ⅛ MIC): −1.253
- Log(FC) ([1]; gene lip1 (P65288): Lipase 1, ⅛ MIC): 1.631
- Log(FC) ([1]; gene mecA (A0A0H3JPA5): Penicillin binding protein 2 prime, ⅛ MIC): 1.378
- Log(FC) ([1]; gene moaD: Molybdopterin synthase sulfur carrier subunit, ⅛ MIC): −1.617
- Log(FC) ([1]; gene narG: Nitrate reductase (quinone), ⅛ MIC): −1.5746
- Log(FC) ([1]; gene nasD: Nitrite reductase, ⅛ MIC): −1.201
- Log(FC) ([1]; gene rsbV: Anti-sigma-B factor antagonist, ⅛ MIC): −1.199
- Log(FC) ([1]; gene sbi (Q931F4): Immunoglobulin-binding protein Sbi, ⅛ MIC): 1.71
- eliminated bacteria at [2]: 6 h
- time kill assay: mode of action [2]: bactericidal
- MIC (S. aureus strains): 3.12 µg/mL (≈ 8.5 µM)
- ability to kill MRSA persisters (MRSA persisters): inhibited the growth of persisters significantly
- CFU count (MRSA persisters; after 4 hrs exposure, 128×MIC): 2×10^7 CFU
- potency against the persister compared with positive controls (MRSA persisters; versus vancomycin and gentamicin): several fold more potent than the positive controls
- MIC [3]: 12.5 µg/mL (≈ 34 µM)
- MIC [4]: 3.12 µg/mL (≈ 8.49 µM)
- MIC [5]: 3.12 µg/mL (≈ 8.49 µM)
- MIC [6]: 3.12 µg/mL (≈ 8.49 µM)
- MIC [7]: 6.25 µg/mL (≈ 17 µM)
- MIC [8]: 1.56 µg/mL (≈ 4.24 µM)
- MIC [9]: 3.12 µg/mL (≈ 8.49 µM)
- MIC [10]: 12.5 µg/mL (≈ 34 µM)
